“Also recorded” adds a separate entry of the source.

Test [1] has as its target T1, p75NTR (Rattus norvegicus, UniProt P07174).
T1 construct: from tissue; host or cells: dorsolateral striatum (DLS) of living rats
T1 sequence (P07174 30-425): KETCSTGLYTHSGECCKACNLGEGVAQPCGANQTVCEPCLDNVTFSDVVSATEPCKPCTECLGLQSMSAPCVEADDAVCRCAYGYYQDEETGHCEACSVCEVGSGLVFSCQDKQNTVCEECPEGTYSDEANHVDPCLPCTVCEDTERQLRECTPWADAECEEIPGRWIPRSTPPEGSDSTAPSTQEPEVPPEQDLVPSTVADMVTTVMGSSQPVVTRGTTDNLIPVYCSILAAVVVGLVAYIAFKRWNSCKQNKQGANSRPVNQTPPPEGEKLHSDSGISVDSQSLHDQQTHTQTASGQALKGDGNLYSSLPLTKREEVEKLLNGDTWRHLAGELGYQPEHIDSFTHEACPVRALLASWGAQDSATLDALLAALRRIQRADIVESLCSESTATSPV
Put plainly: Intermittent access to 20% alcohol 2BC (IA20%-2BC) binge drinking after intra-DLS infusion of LM11A-31. It counts as in vivo. As to conditions: intra-DLS LM11A-31 30 μg/1 μl per side, vs vehicle. As to the method: (§1) At 8 weeks of age, animals were given 24 hours of access to one bottle of 20% alcohol (v/v) and one bottle of tap water concurrently for a total of 21 sessions of 24 hours during a period of 7 weeks. Drinking sessions started at 12:00 P.M. on Monday, Wednesday, and Friday, with 24 or 48 hours (weekend) of alcohol deprivation between the drinking sessions. The water and alcohol bottles were weighed before the beginning of each drinking session, immediately after the first 30 minutes of access to alcohol and at the end of the session. Rats with escalation of alcohol consumption from session 1 to session 18, reaching a baseline of drinking that was higher than 3.5 g/kg/24 h, were selected for the studies.
(§2) Cannula implantation and microinfusions of BDNF and LM11A-31. Four holes were drilled for screws, and two holes were drilled for cannulae implantation (single cannula, C315GA; PlasticsOne). The coordinates for the DLS were +1.2 mm anterior to Bregma and 3.5 mm lateral to the medial suture. The cannulae were implanted into the lateral part of the dorsal striatum (−4.2 mm from the skull surface) and fixed with dental cement. After 1 week of recovery, the alcohol-drinking procedure resumed, and subjects were habituated to the microinjection procedure with two sham injections (injectors were lowered but no infusion took place). […]

Test [2] has as its target T1, p75NTR. The test can be described thus: Intermittent access to 1% sucrose 2BC after intra-DLS administration of LM11A-31. In kind it is in vivo. Particulars: intra-DLS LM11A-31 30 μg/μl; IA-2BC 1% sucrose, 30 min; vs vehicle. As for the experimental part: (§3) The procedure was similar to the IA20%-2BC paradigm described above, except that a sucrose (1%) solution was substituted for alcohol. Rats were tested for sucrose intake in response to intra-DLS administration of LM11A-31 or vehicle 1 week after the conclusion of the alcohol-drinking study. Animals were trained to drink sucrose for 2 weeks before the test day. An independent cohort of rats underwent IA-2BC sucrose-drinking paradigm for 7 weeks before systemic administration of LM11A-31.
as §2, with “place). The experimental microinfusions began after each rat reacquired a stable level of drinking. BDNF, LM11A-31, or PBS was infused via a 25 μl Hamilton syringe (#1702), 3 h (BDNF) or 2 h (LM11A-31) before the beginning of the alcohol-drinking session.” for “place).”

The target in test [3] is T1, p75NTR. The test can be described thus: IA20%-2BC binge drinking after systemic (intraperitoneal) administration of LM11A-31. In kind it is in vivo. Particulars: 30 min. As to the method: as §1
Before the beginning of experiments, rats were habituated for 3 days to intraperitoneal administration by daily injections of saline (0.9% NaCl). LM11A-31 (50-150 mg/kg) or vehicle (0.9% saline) was administered intraperitoneally 2 hours before the beginning of the drinking session. Test days occurred once a week, with two alcohol-drinking sessions without treatment that were performed between injections to allow intake to return to baseline. For the highest dose of LM11A-31, vehicle and drug were tested in different animals. […]

Test [4] concerns the target T1, p75NTR. Put plainly: IA-2BC 1% sucrose drinking after systemic administration of LM11A-31. In kind it is in vivo. Particulars: LM11A-31 150 mg/kg systemic; IA 1% sucrose 2BC 7 weeks; 30 min access. As for the experimental part: as §3
Before the beginning of experiments, rats were habituated for 3 days to intraperitoneal administration by daily injections of saline (0.9% NaCl). LM11A-31 (50-150 mg/kg) or vehicle (0.9% saline) was administered intraperitoneally 2 hours before the beginning of the drinking session. Test days occurred once a week, with two alcohol-drinking sessions without treatment that were performed between injections to allow intake to return to baseline. For the highest dose of LM11A-31, vehicle and drug were tested in different animals.
To test whether systemic administration of LM11A-31 attenuates binge drinking of sucrose, rats had IA to 1% sucrose in a 2BC paradigm for 7 weeks, and sucrose consumption was measured after 30 min access following LM11A-31 injection.

Test [5] has as its target T2, p75NTR (Homo sapiens, UniProt P08138).
T2 sequence (P08138 29-427): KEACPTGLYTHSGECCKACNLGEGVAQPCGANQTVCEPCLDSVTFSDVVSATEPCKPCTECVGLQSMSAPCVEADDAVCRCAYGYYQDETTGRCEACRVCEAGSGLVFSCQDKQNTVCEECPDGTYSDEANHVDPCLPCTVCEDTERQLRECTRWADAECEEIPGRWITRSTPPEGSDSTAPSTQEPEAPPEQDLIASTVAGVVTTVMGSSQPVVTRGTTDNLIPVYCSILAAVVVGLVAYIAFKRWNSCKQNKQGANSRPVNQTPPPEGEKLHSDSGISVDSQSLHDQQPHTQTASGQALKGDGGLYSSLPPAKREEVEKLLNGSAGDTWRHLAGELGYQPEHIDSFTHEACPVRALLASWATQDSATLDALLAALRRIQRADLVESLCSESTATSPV
Particulars: Massa et al., 2006; Longo and Massa, 2013; cited from earlier work.

Test [6] relates to p75NTR-mediated neuronal death. Particulars: Knowles et al., 2013, Tep et al.; cited from earlier work.
For the next test, the system named is Jun kinase. As to conditions: Shi et al., 2013; cited from earlier work.
For test [7], the system named is rats with a history of excessive alcohol drinking. The test can be described thus: Operant self-administration of alcohol after intra-DLS administration of BDNF. In kind it is in vivo, rat. As to conditions: intra-DLS BDNF 0.75 μg/side 3 hours before operant session; 2.5, 10 and 20% alcohol; rats after 5 weeks IA20%-2BC; vs vehicle (PBS). As for the experimental part: After 5 weeks of the intermittent access (IA) to 20% alcohol 2BC paradigm (IA20%-2BC), the rats were trained to self-administer alcohol. […] Rats were trained under a fixed ratio 3 schedule; i.e., rats had to press three times to receive one reward. Sessions lasted for the duration of 1 h at the beginning of the training and 30 min after the first 2 weeks. The number of presses on the levers and the number of alcohol deliveries were recorded using MED-PC IV software (Med-Associates).
Cannula implantation and microinfusions of BDNF and LM11A-31. Four holes were drilled for screws, and two holes were drilled for cannulae implantation (single cannula, C315GA; PlasticsOne). The coordinates for the DLS were +1.2 mm anterior to Bregma and 3.5 mm lateral to the medial suture. The cannulae were implanted into the lateral part of the dorsal striatum (−4.2 mm from the skull surface) and fixed with dental cement. […]
To test the possibility that BDNF signaling in the DLS is disrupted after chronic excessive alcohol drinking, the ability of the neurotrophic factor to control alcohol self-administration in rats with a history of excessive alcohol drinking was tested. […] The self-administration of three alcohol concentrations was measured. […]

Test [8] has as its system rats with history of moderate (10%) alcohol drinking. As to conditions: exogenous BDNF into the DLS, shown previously; cited from earlier work.

For the molecule `CC[C@H](C)[C@H](N)C(=O)NCCN1CCOCC1` [LM11A-31, Tris[(2S,3S)-2-amino-3-methyl-N-(2-morpholinoethyl)pentanamide]tetra(monohydrogensulfate), monosulfate], the binge-like alcohol intake entry at p75NTR [1] (2 h before 30 min alcohol binge-drinking session) is listed as “significantly reduced”. The concurrent water intake entry on p75NTR [1] (2 h before 30 min alcohol session) is “without changing”. Also, the sucrose intake result at p75NTR [2] is on record as “unaltered”. Further, the “binge drinking of alcohol” value on p75NTR [3] (LM11A-31 150 mg/kg intraperitoneally 2 hours before session, IA20%-2BC 7 weeks, vs vehicle) is “significantly attenuated”. The water intake entry on p75NTR [3] (LM11A-31 50-150 mg/kg intraperitoneally 2 hours before session, IA20%-2BC) was “without altering”. Also, on p75NTR [4], the “binge consumption of sucrose” value is on record as “did not alter” and the corresponding water intake entry is reported as “unaltered”. Further, on p75NTR [5], the “binding between p75NTR and neurotrophins, including BDNF” value was “disrupting the binding”. Besides, the p75NTR-mediated neuronal death entry in test [6] is recorded as “blocks”. Further, the “phosphorylation of Jun kinase” value in the test on Jun kinase is “decreases”.

B1: BDNF: Brain-derived neurotrophic factor; Human BDNF was purchased from Sigma-Aldrich (protein, UniProt P23560 19-247, looked up)
Neurotrophic factor BDNF …: APMKEANIRGQGGLAYPGVRTHGTLESVNGPKAGSRGLTSLADTFEHVIEELLDEDQKVRPNEENNKDADLYTSRVMLSSQVPLEPPLLFLLEEYKNYLDAANMSMRVRRHSDPARRGELSVCDSISEWVTAADKKTAVDMSGGTVTVLEKVPVSKGQLKQYFYETKCNPMGYTKEGCRGIDKRHWNSQCRTTQSYVRALTMDSKKRIGWRFIRIDTSCVCTLTIKRGR
Take B1: in test [7], the “amount of alcohol consumed” value is on record as “does not decrease; also recorded: did not decrease” and the “number of alcohol deliveries” value is “does not decrease; also recorded: did not decrease”. Also, the operant alcohol self-administration result in test [8] is listed as “reduces”.

Source of the values: patent US20190231787A1, “METHODS AND COMPOUNDS FOR TREATING ALCOHOL USE DISORDERS AND ASSOCIATED DISEASES” (PHARMATROPHIX, INC., priority 2016, published 2019).
